Patent publication US20260317319A1, “NOVEL ERGOLINES AND METHODS OF TREATING MOOD DISORDERS” (Gilgamesh Pharma Inc., priority 2023, published 2026)

How the values were obtained:
[1] = molecular target: T1, 5-HT2C receptor (Homo sapiens, UniProt P28335); assay: Ca2+ flux functional assay at 5-HT2C (WuXi 5-HT2C protocol); format: cell-based; design: expressed in transfected cells; conditions: for Emax: agonist, tested using WuXi 5-HT2C protocol, max dose, read-out: 5-HT2C % Act @ Max Dose (* WuXi protocol)
T1 sequence (P28335 33-458): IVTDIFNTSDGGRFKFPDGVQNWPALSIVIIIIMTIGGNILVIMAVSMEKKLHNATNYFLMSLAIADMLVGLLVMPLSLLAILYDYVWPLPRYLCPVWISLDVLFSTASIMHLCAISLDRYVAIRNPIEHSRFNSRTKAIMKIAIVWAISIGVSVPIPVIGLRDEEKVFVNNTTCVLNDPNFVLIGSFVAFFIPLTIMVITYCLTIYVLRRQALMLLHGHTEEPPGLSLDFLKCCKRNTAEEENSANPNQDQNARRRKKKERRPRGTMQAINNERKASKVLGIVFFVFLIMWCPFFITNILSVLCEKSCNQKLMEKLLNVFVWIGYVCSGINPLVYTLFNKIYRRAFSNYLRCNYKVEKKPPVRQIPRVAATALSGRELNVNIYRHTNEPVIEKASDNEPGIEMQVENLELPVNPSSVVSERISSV
Protocol: Disclosed compounds were tested for agonist activity at several serotonin receptor subtypes (5-HT2A, […], 5-HT2C, and 5-HT1A) using Ca^2+ flux functional assays and the 5-HT1B receptor using a cAMP accumulation assay, with the results summarized in Table 4. […] Potent agonist activity was also observed at the other serotonin receptors tested, although the selectivity profile among the receptors varied across compounds. […] However, at the same time, the N-propyl compounds were more efficacious agonists at 5-HT2B than the corresponding N-methyl compounds. The selectivity of disclosed compounds for 5-HT2A over 5-HT2C and 5-HT1A was less predictable and varied widely across compounds. […] An azetidinyl amide substituent tended to increase potency at 5-HT1A relative to 5-HT2A.
(§1) Functional Assays at 5-HT2A, 5-HT2B, and 5-HT1A. Agonist activity at 5-HT2A, 5-HT2B, 5HT2C and 5-HT1A receptors was determined using a FLIPR Ca^2+ flux assay at WuXi AppTec (Hong Kong) Limited according to their standard protocols. Briefly, stably transfected cells expressing the receptor of interest and Gα15 in the case of 5-HT1A (HEK293 for 5-HT2A and 5-HT2B; CHO cells for 5-HT1A) were grown and plated in a 384 well plate and incubated at 37° C. and 5% CO2 overnight. A solution of 250 mM probenecid in 1 mL FLIPR assay buffer was prepared fresh. This was combined with a fluorescent dye (Fluo-4 Direct™) to make a final assay concentration of 2.5 mM. Compounds were diluted 1:3.16 for 10 points and 750 nL was added to a 384 well compound plate using ECHO along with 30 μL assay buffer. The fluorescent dye was then added to the assay plate along with assay buffer to a final volume of 40 μL. The cell plate was incubated for 50 min at 37° C. and 5% CO2 and placed into the FLIPR Tetra along with the compound plate. 10 μL of references and compounds were then transferred from the compound plate into the cell plate and the fluorescent signal was read.

[2] = molecular target: T1, 5-HT2C receptor; assay: cell-based; conditions: for Emax: read-out: 5-HT2C % Act @ Max Dose; for EC50: read-out: 5-HT2C EC50
[3] = molecular target: T2, Alpha1A adrenergic receptor (Homo sapiens, UniProt P35348); assay: Ca2+ flux functional assay at Alpha1A; format: cell-based; conditions: for Emax: agonist, Ca2+ flux, max dose, read-out: Alpha 1A % Act @ Max Dose; for maximal efficacy at Alpha1A: "higher" is compared to the N-methyl compound LSD
T2 construct: expressed in transfected cells
T2 sequence (P35348 1-466): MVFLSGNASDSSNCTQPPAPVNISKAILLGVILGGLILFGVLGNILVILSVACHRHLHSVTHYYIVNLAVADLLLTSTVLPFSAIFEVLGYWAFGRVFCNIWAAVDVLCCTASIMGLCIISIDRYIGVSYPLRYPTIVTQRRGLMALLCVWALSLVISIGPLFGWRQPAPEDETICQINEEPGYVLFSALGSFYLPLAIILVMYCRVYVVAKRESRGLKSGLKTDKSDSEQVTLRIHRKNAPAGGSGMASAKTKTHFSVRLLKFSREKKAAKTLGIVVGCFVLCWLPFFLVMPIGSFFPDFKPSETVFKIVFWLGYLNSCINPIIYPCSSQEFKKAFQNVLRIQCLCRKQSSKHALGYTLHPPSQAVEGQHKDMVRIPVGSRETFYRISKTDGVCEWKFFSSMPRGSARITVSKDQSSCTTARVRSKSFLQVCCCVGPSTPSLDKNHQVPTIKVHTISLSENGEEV
Protocol: Disclosed compounds were tested for agonist activity at several adrenergic (Alpha1A and Alpha2A) and dopamine (D1 and D2) receptor subtypes using Ca^2+ flux functional assays, with the results summarized in Table 6. Selectivity for the 5-HT2A receptor over these other targets varied depending on the specific target and compound.
as §1, with “Adrenergic” for “5-HT2A, 5-HT2B,”, “Dopamine Receptors.” for “5-HT1A.”, “Alpha1A, Alpha2A, D1,” for “5-HT2A, 5-HT2B, 5HT2C”, “D2” for “5-HT1A”, “interest” for “interest and Gα15 in the case of 5-HT1A (HEK293 for 5-HT2A and 5-HT2B; CHO cells for 5-HT1A)”

[4] = agonist, Ca2+ flux, Eurofins DiscoverX protocol, max dose
[5] = agonist, Ca2+ flux, Eurofins DiscoverX protocol

| SMILES | EC50 [1] [µM] | Emax [1] [%] | Emax [2, 4] [%] | maximal efficacy at Alpha1A [3] | also measured |
| --- | --- | --- | --- | --- | --- |
| CCN(CC)C(=O)[C@@H]1C=C2c3cccc4[nH]cc(c34)C[C@H]2N(Cc2cccc(O)c2)C1 [Compound 62, (6aR,9R)—N,N-diethyl-7-(3-hydroxybenzyl)-4,6,6a,7,8,9-hexahydroindolo[4,3-fg]quinoline-9-carboxamide] | > 10 | 20.3 |  |  |  |
| CC[C@@H](C)NC(=O)[C@@H]1C=C2c3cccc4[nH]cc(c34)C[C@H]2N(C)C1 [Int8] |  |  |  |  | Emax [2]: 98.2% |
| CCN(CC)C(=O)[C@@H]1C=C2c3cccc4[nH]cc(c34)C[C@H]2N(Cc2ccccc2)C1 [Compound 82, (6aR,9R)-7-benzyl-N,N-diethyl-4,6,6a,7,8,9-hexahydroindolo[4,3-fg]quinoline-9-carboxamide] | > 10 | 15.6 |  |  |  |
| CCN(CC)C(=O)[C@@H]1C=C2c3cccc4[nH]cc(c34)C[C@H]2N(Cc2ccon2)C1 [Compound 70, (6aR,9R)—N,N-diethyl-7-(isoxazol-3-ylmethyl)-4,6,6a,7,8,9-hexahydroindolo[4,3-fg]quinoline-9-carboxamide] | > 10 | 23.9 |  |  |  |
| CCN(CC)C(=O)[C@@H]1C=C2c3cccc4[nH]cc(c34)C[C@H]2N(C)C1 [LSD, lysergic acid diethylamide, reference compound] |  |  |  |  | Emax [3]: 60.3% |
| C=CCN1C[C@H](C(=O)N[C@H](C)CC)C=C2c3cccc4[nH]cc(c34)C[C@H]21 [Compound 8, (6aR,9R)-7-allyl-N—((R)-sec-butyl)-4,6,6a,7,8,9-hexahydroindolo[4,3-fg]quinoline-9-carboxamide] |  |  | 108 |  |  |
| CCN(CC)C(=O)[C@@H]1C=C2c3cccc4[nH]cc(c34)C[C@H]2N(Cc2ccccc2OC)C1 [Compound 10, (6aR,9R)—N,N-diethyl-7-(2-methoxybenzyl)-4,6,6a,7,8,9-hexahydroindolo[4,3-fg]quinoline-9-carboxamide] |  |  | 13.4 | very low efficacy agonists | Emax [3]: 26.6% |
| CCN(CC)C(=O)[C@@H]1C=C2c3cccc4[nH]cc(c34)C[C@H]2N(Cc2cccc(C#N)c2)C1 [Compound 76, (6aR,9R)—N,N-diethyl-7-(3-cyanobenzyl)-4,6,6a,7,8,9-hexahydroindolo[4,3-fg]quinoline-9-carboxamide] | > 10 | 0.14 |  |  |  |
| CCN(CC)C(=O)[C@@H]1C=C2c3cccc4[nH]cc(c34)C[C@H]2N(Cc2cocn2)C1 [Compound 73, (6aR,9R)—N,N-diethyl-7-(oxazol-4-ylmethyl)-4,6,6a,7,8,9-hexahydroindolo[4,3-fg]quinoline-9-carboxamide] | 1.72 | 74 |  |  |  |
| CCCN1C[C@H](C(=O)NC(CC)CC)C=C2c3cccc4[nH]cc(c34)C[C@H]21 [Compound 6, (6aR,9R)—N-(pentan-3-yl)-7-propyl-4,6,6a,7,8,9-hexahydroindolo[4,3-fg]quinoline-9-carboxamide] |  |  | 117 | substantially higher maximal efficacy |  |
| CCN(C)C(=O)[C@@H]1C=C2c3cccc4[nH]cc(c34)C[C@H]2N(Cc2ccccc2)C1 [Compound 85, (6aR,9R)-7-benzyl-N-ethyl-N-methyl-4,6,6a,7,8,9-hexahydroindolo[4,3-fg]quinoline-9-carboxamide] | > 10 | 16.3 |  |  |  |
| CCN(CC)C(=O)[C@@H]1C=C2c3cccc4[nH]cc(c34)C[C@H]2N(Cc2cccc(OC)c2)C1 [Compound 18, (6aR,9R)—N,N-diethyl-7-(3-methoxybenzyl)-4,6,6a,7,8,9-hexahydroindolo[4,3-fg]quinoline-9-carboxamide] |  |  | 7.28 |  | EC50 [2, 5]: > 10 µM |
| CCCN1C[C@H](C(=O)N2[C@@H](C)C[C@@H]2C)C=C2c3cccc4[nH]cc(c34)C[C@H]21 [Compound 4, ((2S,4S)-2,4-dimethylazetidin-1-yl)((6aR,9R)-7-propyl-4,6,6a,7,8,9-hexahydroindolo[4,3-fg]quinolin-9-yl)methanone] |  |  | 111 | substantially higher maximal efficacy | Emax [3]: 119% |
| CCCN1C[C@H](C(=O)N[C@H](C)CC)C=C2c3cccc4[nH]cc(c34)C[C@H]21 [Compound 3, (6aR,9R)—N—((R)-sec-butyl)-7-propyl-4,6,6a,7,8,9-hexahydroindolo[4,3-fg]quinoline-9-carboxamide] |  |  | 119 | substantially higher maximal efficacy | Emax [3]: 125% |
| CCN(CC)C(=O)[C@@H]1C=C2c3cccc4[nH]cc(c34)C[C@H]2N(CCc2ccccc2OC)C1 [Compound 11, (6aR,9R)—N,N-diethyl-7-(2-methoxyphenethyl)-4,6,6,7,8,9-hexahydroindolo[4,3-fg]quinoline-9-carboxamide] |  |  |  | very low efficacy agonists |  |
| CCN(CC)C(=O)[C@@H]1C=C2c3cccc4[nH]cc(c34)C[C@H]2N(Cc2ccc(Cl)cc2)C1 [Compound 50, (6aR,9R)-7-(4-chlorobenzyl)-N,N-diethyl-4,6,6a,7,8,9-hexahydroindolo[4,3-fg]quinoline-9-carboxamide] | > 10 | 1.08 |  |  |  |
| CCCN1C[C@H](C(=O)N(CC)CC)C=C2c3cccc4[nH]cc(c34)C[C@H]21 [Compound 1, (6aR,9R)—N,N-diethyl-7-propyl-4,6,6a,7,8,9-hexahydroindolo[4,3-fg]quinoline-9-carboxamide] |  |  | 107 | substantially higher maximal efficacy | Emax [3]: 80.6% |
| CCN(CC)C(=O)[C@@H]1C=C2c3cccc4[nH]cc(c34)C[C@H]2N(Cc2ccc(F)cc2)C1 [Compound 49, (6aR,9R)—N,N-diethyl-7-(4-fluorobenzyl)-4,6,6a,7,8,9-hexahydroindolo[4,3-fg]quinoline-9-carboxamide] | > 10 | 1.32 |  |  |  |
| CCN(CC)C(=O)[C@@H]1C=C2c3cccc4[nH]cc(c34)C[C@H]2N(Cc2ccc(OC)cc2)C1 [Compound 19, (6aR,9R)—N,N-diethyl-7-(4-methoxybenzyl)-4,6,6a,7,8,9-hexahydroindolo[4,3-fg]quinoline-9-carboxamide] |  |  | 1.7 |  | EC50 [2, 5]: > 10 µM |
